Results on 30 molecules are retold here after patent publication US12336981B2, “Compounds and compositions for the inhibition of NAMPT” (Valo Health, Inc., priority 2010, dated 2025).

pIC50: −log10 of the molar value. Read-outs that look alike come from different tables or passages of the source.

Assay [1] concerns the target T1, NAMPT (Homo sapiens, UniProt P43490).
T1 construct: His tag; host or cells: E. coli
Nature of the assay: Biochemical inhibition assay: NAMPT enzymatic reaction, NMN quantified by mass spectrometry. The conditions noted are these: read-out: Biochem IC50. The essentials: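 Inhibition of E. coli-expressed His-tagged human NAMPT, measured as NMN formation by mass spectrometry after a 30 min room-temperature reaction containing 1 μM NAM, 100 μM PRPP and 2.5 mM ATP.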

The subject of assay [2] is A2780 cells. Nature of the assay: In-vitro cell proliferation assay (SRB), A2780 cells. It counts as cell-based. The settings on record: A2780 cells, 72 hours, read-out: A2780 IC50. In short, it runs like this: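 Cells were plated overnight at 37° C., 5% CO2, then exposed to serially diluted compounds (0.1% DMSO final) for 72 hours. Viable cells were measured by sulforhodamine B staining after TCA fixation, read at 570 nm; media-only background was subtracted before % inhibition was calculated.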

Where [3] appears, read: Homo sapiens, A2780, 72 h, SRB assay.

T1 sequence (P43490 whole entry): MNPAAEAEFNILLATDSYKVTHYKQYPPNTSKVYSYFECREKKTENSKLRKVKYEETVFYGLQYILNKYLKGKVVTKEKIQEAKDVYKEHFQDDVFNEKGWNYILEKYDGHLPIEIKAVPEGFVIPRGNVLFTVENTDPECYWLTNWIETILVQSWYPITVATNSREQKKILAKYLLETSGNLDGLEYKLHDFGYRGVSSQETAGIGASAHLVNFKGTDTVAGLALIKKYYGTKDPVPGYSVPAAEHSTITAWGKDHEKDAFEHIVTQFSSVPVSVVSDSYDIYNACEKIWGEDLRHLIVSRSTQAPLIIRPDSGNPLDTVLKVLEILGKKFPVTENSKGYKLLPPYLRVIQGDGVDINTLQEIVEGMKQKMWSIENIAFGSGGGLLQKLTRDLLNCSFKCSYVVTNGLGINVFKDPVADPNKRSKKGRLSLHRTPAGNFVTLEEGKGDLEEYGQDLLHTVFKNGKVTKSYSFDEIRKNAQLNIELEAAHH

The pIC50 is the IC50 on a negative log10 scale, so that one unit is a factor of ten. Take `CC(C)COc1cccc(S(=O)(=O)c2ccc(CNC(=O)c3cc4cnccc4[nH]3)cc2)c1` [N-[(4-{[3-(2-methylpropoxy)benzene]sulfonyl}phenyl)methyl]-1H-pyrrolo[3,2-c]pyridine-2-carboxamide]: the pIC50 in assay [1] (NAMPT enzymatic assay) is 7.49; in assay [2] (Homo sapiens, A2780, 72 h, SRB) it was 7.84.

As for `O=C(NCc1ccc(S(=O)(=O)c2cccc(C(=O)NC3CCCC3)c2)cc1)c1cnc2[nH]ncc2c1` [N-[(4-{[3-(cyclopentylcarbamoyl)benzene]sulfonyl}phenyl)methyl]-1H-pyrazolo[3,4-b]pyridine-5-carboxamide], the pIC50 in assay [1] (NAMPT enzymatic assay) was 7.48; in assay [2] (Homo sapiens, A2780, 72 h, SRB) it was 7.48.

`CCN(CC)C(=O)c1cc(F)cc(S(=O)(=O)c2ccc(CNC(=O)c3cnc4nccn4c3)cc2)c1` [N-[(4-{[3-(diethylcarbamoyl)-5-fluorobenzene]sulfonyl}phenyl)methyl]imidazo[1,2-a]pyrimidine-6-carboxamide]: the pIC50 in assay [1] (NAMPT enzymatic assay) was 8.33; in assay [2] (Homo sapiens, A2780, 72 h, SRB) it was 7.77.

With `CCS(=O)(=O)c1cccc(S(=O)(=O)c2ccc(CNC(=O)c3cc4cnccc4[nH]3)cc2)c1` [N-[(4-{[3-(ethanesulfonyl)benzene]sulfonyl}phenyl)methyl]-1H-pyrrolo[3,2-c]pyridine-2-carboxamide], the negative-log IC50 (pIC50) in assay [1] (NAMPT enzymatic assay) is 7.77; in assay [2] (Homo sapiens, A2780, 72 h, SRB), 7.81.

In the case of `COCc1cccc(S(=O)(=O)c2ccc(CNC(=O)c3cnc4[nH]ncc4c3)cc2)c1` [N-[(4-{[3-(methoxymethyl)benzene]sulfonyl}phenyl)methyl]-1H-pyrazolo[3,4-b]pyridine-5-carboxamide], the results for the negative logarithm of the IC50 (pIC50) in assay [1] (NAMPT enzymatic assay) and in assay [2] (SRB) were 7.41 and 7.40, respectively.

`COCc1cccc(S(=O)(=O)c2ccc(CNC(=O)c3cc4cnccc4[nH]3)cc2)c1` [N-[(4-{[3-(methoxymethyl)benzene]sulfonyl}phenyl)methyl]-1H-pyrrolo[3,2-c]pyridine-2-carboxamide]: the pIC50 was 7.69 in assay [1] (NAMPT enzymatic assay) and 7.89 in assay [2] (Homo sapiens, A2780, 72 h, SRB).

`O=C(NCc1ccc(S(=O)(=O)c2cccc(N3CCOCC3)c2)cc1)c1ccc2ncsc2c1` [N-[(4-{[3-(morpholin-4-yl)benzene]sulfonyl}phenyl)methyl]-1,3-benzothiazole-6-carboxamide]: the negative logarithm of the IC50 (pIC50) in assay [1] (NAMPT enzymatic assay) was 7.40; in assay [2] (Homo sapiens, A2780, 72 h, SRB), 5.00 to 6.00.

`O=C(NCc1ccc(S(=O)(=O)c2cccc(N3CCCCC3)c2)cc1)c1cc2ccncc2o1` [N-[(4-{[3-(piperidin-1-yl)benzene]sulfonyl}phenyl)methyl]furo[2,3-c]pyridine-2-carboxamide]: the pIC50 was 7.95 in assay [1] (NAMPT enzymatic assay) and 7.90 in assay [2] (Homo sapiens, A2780, 72 h, SRB).

Consider `CC(C)c1cccc(S(=O)(=O)c2ccc(CNC(=O)c3cc4cnccc4[nH]3)cc2)c1` [N-[(4-{[3-(propan-2-yl)benzene]sulfonyl}phenyl)methyl]-1H-pyrrolo[3,2-c]pyridine-2-carboxamide], for which the pIC50 is 8.22 in assay [1] (NAMPT enzymatic reaction) and 8.40 in assay [2] (setting [3]).

In the case of `CC(C)c1cccc(S(=O)(=O)c2ccc(CNC(=O)c3ccc4nccn4c3)cc2)c1` [N-[(4-{[3-(propan-2-yl)benzene]sulfonyl}phenyl)methyl]imidazo[1,2-a]pyridine-6-carboxamide], the pIC50 in assay [1] (NAMPT enzymatic assay) was 7.91; in assay [2] (Homo sapiens, A2780, 72 h, SRB), 8.46.

On to `CC(C)c1cccc(S(=O)(=O)c2ccc(CNC(=O)c3cc4ccncc4s3)cc2)c1` [N-[(4-{[3-(propan-2-yl)benzene]sulfonyl}phenyl)methyl]thieno[2,3-c]pyridine-2-carboxamide], for which the pIC50 in assay [1] (NAMPT enzymatic reaction) is 8.05; in assay [2] (setting [3]), 8.59.

As to `O=C(NCc1ccc(S(=O)(=O)c2cccc(OC(F)(F)F)c2)cc1)c1cc2cnccc2[nH]1` [N-[(4-{[3-(trifluoromethoxy)benzene]sulfonyl}phenyl)methyl]-1H-pyrrolo[3,2-c]pyridine-2-carboxamide], the pIC50 in assay [1] (NAMPT enzymatic reaction) was 8.30; in assay [2] (setting [3]), 8.52.

For the molecule `O=C(NCc1ccc(S(=O)(=O)c2cccc(OC(F)(F)F)c2)cc1)c1ccc2nccn2c1` [N-[(4-{[3-(trifluoromethoxy)benzene]sulfonyl}phenyl)methyl]imidazo[1,2-a]pyridine-6-carboxamide], the pIC50 was 8.06 in assay [1] (NAMPT enzymatic assay) and 8.50 in assay [2] (Homo sapiens, A2780, 72 h, SRB).

As for `O=C(NCc1ccc(S(=O)(=O)c2cccc(OC(F)(F)F)c2)cc1)c1cc2ccncc2s1` [N-[(4-{[3-(trifluoromethoxy)benzene]sulfonyl}phenyl)methyl]thieno[2,3-c]pyridine-2-carboxamide], the pIC50 in assay [1] (NAMPT enzymatic reaction) is 8.70; in assay [2] (setting [3]), 8.62.

On to `O=C(NCc1ccc(S(=O)(=O)c2cccc(C(F)(F)F)c2)cc1)c1cc2cnccc2[nH]1` [N-[(4-{[3-(trifluoromethyl)benzene]sulfonyl}phenyl)methyl]-1H-pyrrolo[3,2-c]pyridine-2-carboxamide], for which the pIC50 was 8.05 in assay [1] (NAMPT enzymatic reaction) and 8.52 in assay [2] (setting [3]).

`O=C(NCc1ccc(S(=O)(=O)c2cccc(C(F)(F)F)c2)cc1)c1ccc2nccn2c1` [N-[(4-{[3-(trifluoromethyl)benzene]sulfonyl}phenyl)methyl]imidazo[1,2-a]pyridine-6-carboxamide]: the pIC50 in assay [1] (NAMPT enzymatic assay) is 8.07; in assay [2] (Homo sapiens, A2780, 72 h, SRB) it was 8.76.

With `O=C(NCc1ccc(S(=O)(=O)c2cccc(C(F)(F)F)c2)cc1)c1cc2ccncc2s1` [N-[(4-{[3-(trifluoromethyl)benzene]sulfonyl}phenyl)methyl]thieno[2,3-c]pyridine-2-carboxamide], the figures for the negative-log IC50 (pIC50) in assay [1] (NAMPT enzymatic reaction) and in assay [2] (setting [3]) were 8.52 and 9.00, respectively.

Turning to `O=C(NCc1ccc(S(=O)(=O)c2ccc(C(F)(F)F)c(Cl)c2)cc1)c1cnc2[nH]ncc2c1` [N-[(4-{[3-chloro-4-(trifluoromethyl)benzene]sulfonyl}phenyl)methyl]-1H-pyrazolo[3,4-b]pyridine-5-carboxamide], the pIC50 in assay [1] (NAMPT enzymatic assay) was 7.07; in assay [2] (Homo sapiens, A2780, 72 h, SRB), 7.58.

For `CCN(CC)C(=O)c1cc(Cl)cc(S(=O)(=O)c2ccc(CNC(=O)c3cc4ccncc4o3)cc2)c1` [N-[(4-{[3-chloro-5-(diethylcarbamoyl)benzene]sulfonyl}phenyl)methyl]furo[2,3-c]pyridine-2-carboxamide], the pIC50 was 8.08 in assay [1] (NAMPT enzymatic assay) and 8.77 in assay [2] (Homo sapiens, A2780, 72 h, SRB).

With `O=C(NCc1ccc(S(=O)(=O)c2cc(Cl)cc(C(F)(F)F)c2)cc1)c1cnc2[nH]ncc2c1` [N-[(4-{[3-chloro-5-(trifluoromethyl)benzene]sulfonyl}phenyl)methyl]-1H-pyrazolo[3,4-b]pyridine-5-carboxamide], the pIC50 was 8.11 in assay [1] (NAMPT enzymatic assay) and 8.56 in assay [2] (Homo sapiens, A2780, 72 h, SRB).

Take `O=C(NCc1ccc(S(=O)(=O)c2cc(Cl)cc(C(F)(F)F)c2)cc1)c1cc2cnccc2[nH]1` [N-[(4-{[3-chloro-5-(trifluoromethyl)benzene]sulfonyl}phenyl)methyl]-1H-pyrrolo[3,2-c]pyridine-2-carboxamide]: the pIC50 in assay [1] (NAMPT enzymatic assay) was 7.70; in assay [2] (Homo sapiens, A2780, 72 h, SRB), 8.57.

Regarding `O=C(NCc1ccc(S(=O)(=O)c2ccc(-n3cccn3)c(F)c2)cc1)c1cc2cnccc2[nH]1` [N-[(4-{[3-fluoro-4-(1H-pyrazol-1-yl)benzene]sulfonyl}phenyl)methyl]-1H-pyrrolo[3,2-c]pyridine-2-carboxamide], the results for the pIC50 in assay [1] (NAMPT enzymatic reaction) and in assay [2] (setting [3]) were 7.96 and 8.40, respectively.

Consider `O=C(NCc1ccc(S(=O)(=O)c2ccc(-n3cccn3)c(F)c2)cc1)c1ccc2nccn2c1` [N-[(4-{[3-fluoro-4-(1H-pyrazol-1-yl)benzene]sulfonyl}phenyl)methyl]imidazo[1,2-a]pyridine-6-carboxamide], for which the pIC50 in assay [1] (NAMPT enzymatic assay) was 8.27; in assay [2] (Homo sapiens, A2780, 72 h, SRB), 8.47.

Turning to `O=C(NCc1ccc(S(=O)(=O)c2ccc(OCC(F)(F)F)c(F)c2)cc1)c1cnc2[nH]ncc2c1` [N-[(4-{[3-fluoro-4-(2,2,2-trifluoroethoxy)benzene]sulfonyl}phenyl)methyl]-1H-pyrazolo[3,4-b]pyridine-5-carboxamide], the negative logarithm of the IC50 (pIC50) in assay [1] (NAMPT enzymatic assay) was 7.99; in assay [2] (Homo sapiens, A2780, 72 h, SRB), 7.65.

Take `O=C(NCc1ccc(S(=O)(=O)c2ccc(OC(F)(F)F)c(F)c2)cc1)c1cnc2[nH]ncc2c1` [N-[(4-{[3-fluoro-4-(trifluoromethoxy)benzene]sulfonyl}phenyl)methyl]-1H-pyrazolo[3,4-b]pyridine-5-carboxamide]: the pIC50 in assay [1] (NAMPT enzymatic assay) is 7.76; in assay [2] (Homo sapiens, A2780, 72 h, SRB) it was 7.86.

`O=C(NCc1ccc(S(=O)(=O)c2ccc(OC(F)(F)F)c(F)c2)cc1)c1cc2cnccc2[nH]1` [N-[(4-{[3-fluoro-4-(trifluoromethoxy)benzene]sulfonyl}phenyl)methyl]-1H-pyrrolo[3,2-c]pyridine-2-carboxamide]: the negative-log IC50 (pIC50) in assay [1] (NAMPT enzymatic assay) was 7.58; in assay [2] (Homo sapiens, A2780, 72 h, SRB), 7.69.

For `O=C(NCc1ccc(S(=O)(=O)c2ccc(C(F)(F)F)c(F)c2)cc1)c1cc2cnccc2[nH]1` [N-[(4-{[3-fluoro-4-(trifluoromethyl)benzene]sulfonyl}phenyl)methyl]-1H-pyrrolo[3,2-c]pyridine-2-carboxamide], the pIC50 in assay [1] (NAMPT enzymatic assay) was 7.99; in assay [2] (Homo sapiens, A2780, 72 h, SRB), 7.89.

With `O=C(NCc1ccc(S(=O)(=O)c2cc(F)cc(OCC(F)(F)F)c2)cc1)c1cnc2[nH]ncc2c1` [N-[(4-{[3-fluoro-5-(2,2,2-trifluoroethoxy)benzene]sulfonyl}phenyl)methyl]-1H-pyrazolo[3,4-b]pyridine-5-carboxamide], the pIC50 in assay [1] (NAMPT enzymatic assay) was 8.10; in assay [2] (Homo sapiens, A2780, 72 h, SRB) it was 8.32.

As to `O=C(NCc1ccc(S(=O)(=O)c2cc(F)cc(OCC(F)(F)F)c2)cc1)c1cc2ccncc2o1` [N-[(4-{[3-fluoro-5-(2,2,2-trifluoroethoxy)benzene]sulfonyl}phenyl)methyl]furo[2,3-c]pyridine-2-carboxamide], the pIC50 is 8.13 in assay [1] (NAMPT enzymatic assay) and 8.21 in assay [2] (Homo sapiens, A2780, 72 h, SRB).

For `O=C(NCc1ccc(S(=O)(=O)c2cc(F)cc(OCC(F)(F)F)c2)cc1)c1cc2ccncc2s1` [N-[(4-{[3-fluoro-5-(2,2,2-trifluoroethoxy)benzene]sulfonyl}phenyl)methyl]thieno[2,3-c]pyridine-2-carboxamide], the pIC50 in assay [1] (NAMPT enzymatic assay) is 8.54; in assay [2] (Homo sapiens, A2780, 72 h, SRB), 8.46.
